One data set relates to human coronavirus 229E. Kind of data set: Antiviral assay against human coronavirus 229E in HEL cells, MTS readout. The format is cell-based.
Data set [1] relates to Respiratory syncytial virus (RSV; strain Long). Put plainly: microbe, parasite or virus in culture. The format is cell-based.
For data set [2], the system named is Influenza A/H1N1 (A/Ned/378/05). Put plainly: microbe, parasite or virus in culture. The format is cell-based, human influenza virus. To be noted: read-out: Antiviral EC50 Influenza A/H1N1.
In data set [3] the test system is Influenza A/H3N2 (A/HK/7/87). Kind of data set: microbe, parasite or virus in culture. The format is cell-based, human influenza virus. The conditions noted are these: read-out: Antiviral EC50 Influenza A/H3N2.
The test system of data set [4] is Respiratory syncytial virus (RSV; strain Long). The format is cell-based. To be noted: read-out: Anti-RSV EC50, microscopic method.
A short description of data set [5]: in vitro. To be noted: dog.
A short description of data set [6]: in vitro. The conditions noted are these: African green monkey.
The nature of data set [7]: in vitro. The conditions noted are these: human.
Data set [8] in a line: in vitro. To be noted: human. This is another data set of the same source.
Data set [9] has as its system four mammalian cell lines.
Setting [10] is: Human coronavirus 229E, MTS assay, HEL cells.
Where [11] appears, read: human respiratory syncytial virus, HEp-2, read-out: Antiviral EC50 RSV.

Entries after “also recorded” stand apart in the source; their conditions may differ. Where two headings read alike, the source gives them in different places.

As a reminder, the melting point is the temperature of the solid-liquid transition.

Molecule `CC(=NNC(N)=O)c1ccc2c(c1)nc(Cc1ccc(Cl)cc1)n2CCCN(C)C` came in with a melting point of 211 to 212.5 °C.

Consider `CC(=NNC(N)=S)c1ccc2c(c1)nc(Cn1nc3ccccc3n1)n2CCN(C)C`, for which the melting point was in the range of 214 to 217 °C.

`CC(=NNC(N)=O)c1ccc2c(c1)nc(Cn1nc3ccccc3n1)n2CCN(C)C` displayed a melting point of 209 to 212 °C.

In the case of `CCN(CC)CCCn1c(Cc2ccc(OC)cc2)nc2cc(C(C)=NNC(N)=S)ccc21`, the melting point was in the range of 180.7 to 182.9 °C.

For “2-(1-{2-[(2H-Benzo[d][1,2,3]triazol-1-yl)methyl]-1-[3-(N,N-dimethylamino)propyl]-1H-benzo[d]imidazol-5-yl}ethylidene)hydrazine-1-carbothioamide [Compound 22]”, the EC50 was greater than 100 µM with human coronavirus 229E; 7 µM in data set [1] (read-out: Antiviral EC50 RSV); 41 µM in data set [2]; greater than 100 µM in [3]; 8.9 µM in [4]. Moreover, the CC50 in the data set on MDCK cells was greater than 100 µM; in the data set on Vero cells it was greater than 100 µM; with HEL cells it was 100 µM; with Hep-2 cells, greater than 100 µM.

As for “2-(1-{2-[(2H-Benzo[d][1,2,3]triazol-2-yl)methyl]-1-[3-(N,N-diethylamino)propyl]-1H-benzo[d]imidazol-5-yl}ethylidene)hydrazine-1-carbothioamide [Compound 21]”, in data set [1], the “Anti-RSV activity (in words)” value is “inactive”.

`CC(=NNC(N)=S)c1ccc2c(c1)nc(Cc1ccc(Cl)cc1)n2CCCN(C)C` [Compound 4, 2-{1-[2-(4-Chlorobenzyl)-1-[3-(N,N-dimethylamino)propyl]-1H-benzo[d]imidazol-5-yl]-ethylidene}hydrazine-1-carbothioamide] showed a melting point of 110 to 111 °C. In addition, in [1], the “Anti-RSV activity (in words)” value is “poorly effective; also recorded: inactive”.

As for `CCN(CC)CCCn1c(Cc2ccccc2)nc2cc(C(C)=NNC(N)=S)ccc21` [Compound 8, 2-(1-{2-Benzyl-1-[3-(N,N-diethylamino)propyl]-1H-benzo[d]imidazol-5-yl}ethylidene)-hydrazine-1-carbothioamide], the EC50 is 56 µM in the data set with human coronavirus 229E (setting [10]); greater than 100 µM in [1] (setting [11]); 38 µM in [2] (Influenza A virus, H1N1, MDCK); greater than 100 µM in [3] (Influenza A virus, H3N2, MDCK). The CC50 in “in vitro [5]” was greater than 100 µM; in the data set “in vitro [6]” it was 44 µM; in “in vitro [7]”, greater than 100 µM; in the data set “in vitro [8]” it was greater than 100 µM.

For `CCN(CC)CCCn1c(Cc2ccccc2)nc2cc(C(C)=NNC(N)=O)ccc21` [Compound 16, 2-(1-{1-[3-(N,N-Diethylamino)propyl]-2-benzyl-1H-benzo[d]imidazol-5-yl}ethylidene)-hydrazine-1-carboxamide], the EC50 is 39 µM in the data set with human coronavirus 229E (setting [10]); greater than 100 µM in [1] (setting [11]); 47 µM in data set [2] (Influenza A virus, H1N1, MDCK); greater than 100 µM in data set [3] (Influenza A virus, H3N2, MDCK). For the same molecule, the CC50 in “in vitro [5]”, in “in vitro [6]”, in “in vitro [7]” and in the data set “in vitro [8]” was greater than 100 µM throughout.

`CCN(CC)CCCn1c(Cc2ccc(OC)cc2)nc2cc(C(C)=NNC(N)=O)ccc21` [Compound 17, 2-(1-{1-[3-(N,N-Diethylamino)propyl]-2-(4-methoxybenzyl)-1H-benzo[d]imidazol-5-yl}-ethylidene)hydrazine-1-carboxamide] registered a melting point of 190 to 192 °C. The molecule also came in with an EC50 in the data set with human coronavirus 229E (setting [10]) of 41 µM. The EC50 in data set [1] (setting [11]) was greater than 100 µM. The EC50 in [2] (Influenza A virus, H1N1, MDCK) was found to be 47 µM. For the same molecule, in “in vitro [5]”, the CC50 is greater than 100 µM. This molecule also gave a CC50 in “in vitro [6]” of 43 µM. Besides, the “Cytotoxicity (in words)” value in [9] is reported as “produced cytotoxicity in two of the four cell lines”. Further, the EC50 in data set [3] (Influenza A virus, H3N2, MDCK) was greater than 100 µM.

In turn, `CC(=NNC(N)=S)c1ccc2c(c1)nc(Cn1nc3ccccc3n1)n2CCCN(C)C` [Compound 19, 2-(1-{2-[(2H-Benzo[d][1,2,3]triazol-2-yl)methyl]-1-[3-(N,N-dimethylamino)propyl]-1H-benzo[d]imidazol-5-yl}ethylidene)hydrazine-1-carbothioamide] returned a melting point of 212 to 214 °C. Besides, the “Anti-RSV activity (in words)” value in data set [1] was “inactive”.

On to `NC(=O)c1ncn([C@@H]2O[C@H](CO)[C@@H](O)[C@H]2O)n1` [Ribavirin, reference compound], for which the EC50 worked out at 6.7 µM in data set [1] (setting [11]); 7.4 µM in data set [2] (Influenza A virus, H1N1, MDCK); 7.5 µM in [3] (Influenza A virus, H3N2, MDCK). The CC50 in the data set “in vitro [6]” and in the data set “in vitro [8]” was greater than 250 µM each time.

For `CC(=O)N[C@H]1[C@H]([C@H](O)[C@H](O)CO)OC(C(=O)O)=C[C@@H]1N=C(N)N` [Zanamivir, reference compound], the EC50 in [2] (Influenza A virus, H1N1, MDCK) worked out at 0.6 µM; in [3] (Influenza A virus, H3N2, MDCK) it was 31 µM. This molecule had a CC50 in “in vitro [5]” greater than 100 µM.

With “dextran sulfate MW 10,000 [DS-10,000, reference compound]”, the “Antiviral EC50 RSV” value in [1] came to 0.01 µg/mL.

B1: UDA: UDA lectin, reference in the coronavirus 229E assay (protein, UniProt P11218 24-372, looked up)
Lectin/endochitinase 1: QRCGSQGGGGTCPALWCCSIWGWCGDSEPYCGRTCENKCWSGERSDHRCGAAVGNPPCGQDRCCSVHGWCGGGNDYCSGSKCQYRCSSSVRGPRVALSGNSTANSIGNVVVTEPLFDQMFSHRKDCPSQGFYSYHSFLVAAESFPAFGTIGDVATRKREVAAFLAHISQATSGERSDVENPHAWGLCHINTTTVTENDFCTSSDWPCAAGKKYSPRGPIQLTHNFNYGLAGQAIGEDLIQNPDLVEKDPIISFKTALWFWMSQHDNKPSCHDIVLNANSAANRIPNKGVIGNIISRAFGHDDFAVRSSSIGFYKRYCDMLGVSYGHDLKYWFDNTPSSEFQRIQMRVAA
Consider B1, for which the “Antiviral EC50 Coronavirus 229E” value in the data set on human coronavirus 229E is given as 2.2 µg/mL. In addition, the “CC50 HEL” value in the data set with HEL cells was greater than 100 µg/mL.

The record behind these values is publication PMC7180491, “Synthesis and Biological Evaluation of Novel (thio)semicarbazone-Based Benzimidazoles as Antiviral Agents against Human Respiratory Viruses” (Molecules, 2020).
